“Also recorded” adds a separate entry of the source.
Tests used:
N^5-CAIR mutase = settings: fungal and bacterial N^5-CAIR mutase; cited from earlier work
[1] = molecular target: T1, G. gallus AIR carboxylase (Gallus gallus, UniProt P38024); settings: cited from earlier work
T1 sequence (P38024 1-426): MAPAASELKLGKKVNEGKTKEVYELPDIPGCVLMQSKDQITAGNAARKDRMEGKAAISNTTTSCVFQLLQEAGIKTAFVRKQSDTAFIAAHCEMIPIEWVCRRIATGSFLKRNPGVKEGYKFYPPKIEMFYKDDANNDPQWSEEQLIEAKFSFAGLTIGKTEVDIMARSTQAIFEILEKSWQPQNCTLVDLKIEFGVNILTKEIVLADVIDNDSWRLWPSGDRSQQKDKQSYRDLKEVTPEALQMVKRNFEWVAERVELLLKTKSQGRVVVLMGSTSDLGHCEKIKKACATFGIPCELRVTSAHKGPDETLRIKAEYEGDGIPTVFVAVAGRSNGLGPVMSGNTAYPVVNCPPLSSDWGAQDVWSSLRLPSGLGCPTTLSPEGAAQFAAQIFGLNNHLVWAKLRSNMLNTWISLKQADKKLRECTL

[2] = molecular target: T1, G. gallus AIR carboxylase; experiment: Inhibition of AIR carboxylase, CAIR decarboxylation assay; format: biochemical, G. gallus (chicken)
[3] = molecular target: T1, G. gallus AIR carboxylase; experiment: Test as alternative substrates for AIR carboxylase; format: biochemical; settings: UV and HPLC analysis

## Nc1c([N+](=O)[O-])ncn1[C@@H]1O[C@H](COP(=O)(O)O)[C@@H](O)[C@H]1O [Compound 3, 4-nitro-5-aminoimidazole ribonucleotide]
N^5-CAIR mutase
  type of inhibition: steady-state competitive inhibitor
[1]; compared with CAIR
  fold tighter affinity for the enzyme than CAIR: 10,000 fold
[1]; listed as NAIR
  type of inhibition / kinetics: slow, tight binding inhibitor; also recorded: slow, tight-binding kinetics

## Nc1c(C(=O)O)cnn1[C@@H]1O[C@H](COP(=O)(O)O)[C@@H](O)[C@H]1O [Compound 8, 5-Amino-1-(β-D-ribofuranosyl)pyrazole-4-carboxylate 5′-phosphate]
[2]; compared to CAIR
  fold difference in binding affinity, CAIR into CAPzR: 3 fold
[2]; in words
  binding affinity relative to CAIR: greater affinity than CAIR

## Nc1c(C(=O)O)nnn1[C@@H]1O[C@H](COP(=O)(O)O)[C@@H](O)[C@H]1O [Compound 10, 5-Amino-1-(β-D-ribofuranosyl)-1,2,3-triazole-4-carboxylate 5′-phosphate]
[3]
  alternative substrate for the enzyme: neither compound is an alternative substrate

Source: publication PMC2782746 (Bioorganic & medicinal chemistry, 2008)
